Molecular target: Glycogen synthase kinase-3 beta (Homo sapiens, UniProt P49841)
Assay: GSK3beta kinase inhibitor potency, dose response, biochemical, luminescence, cell-free homogeneous, retest (AID 434954)

Glycogen synthase kinase-3 beta, sequence (P49841 whole entry): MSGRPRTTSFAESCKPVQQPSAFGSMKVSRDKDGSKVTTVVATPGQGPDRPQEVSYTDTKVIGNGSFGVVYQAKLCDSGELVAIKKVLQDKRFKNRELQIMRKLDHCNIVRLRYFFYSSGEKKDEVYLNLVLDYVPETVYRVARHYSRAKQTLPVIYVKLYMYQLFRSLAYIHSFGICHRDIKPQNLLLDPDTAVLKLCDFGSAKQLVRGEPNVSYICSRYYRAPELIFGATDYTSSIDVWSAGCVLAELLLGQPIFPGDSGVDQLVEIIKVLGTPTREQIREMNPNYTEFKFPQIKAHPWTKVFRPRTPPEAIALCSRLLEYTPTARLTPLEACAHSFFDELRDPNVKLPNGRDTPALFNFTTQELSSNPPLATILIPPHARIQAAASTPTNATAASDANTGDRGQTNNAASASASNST

Cn1c(SCc2ccccc2C#N)nnc1-c1ccncc1 [2-(4-Methyl-5-pyridin-4-yl-4H-[1,2,4]triazol-3-ylsulfanylmethyl)-benzonitrile]
EC50: > 300 µM

c1ccc(-n2cnnc2SCc2cn3cccnc3n2)cc1 [2-(4-Phenyl-4H-[1,2,4]triazol-3-ylsulfanylmethyl)-imidazo[1,2-a]pyrimidine]
EC50: > 300 µM

CCCCc1cc(=O)oc2cc(C)cc(OCC(=O)O)c12 [2-(4-butyl-7-methyl-2-oxochromen-5-yl)oxyacetic acid]
EC50: > 300 µM

O=C(Cc1ccc(Cl)cc1)Nc1ncc([N+](=O)[O-])s1 [2-(4-chlorophenyl)-N-(5-nitro-1,3-thiazol-2-yl)ethanamide]
EC50: 30.4 µM

CCc1nn(CC(=O)NCCN2CCOCC2)c(=O)c2cc3c(OC)cccc3n12 [2-(4-ethyl-9-methoxy-1-oxidanylidene-[1,2,4]triazino[4,5-a]indol-2-yl)-N-(2-morpholin-4-ylethyl)ethanamide]
EC50: > 300 µM

CCc1nn(CC(=O)NCCC(C)C)c(=O)c2cc3c(OC)cccc3n12 [2-(4-ethyl-9-methoxy-1-oxo-[1,2,4]triazino[4,5-a]indol-2-yl)-N-(3-methylbutyl)acetamide]
EC50: > 300 µM

CCN1CCN(c2nc(N)c([N+](=O)[O-])c(Nc3cccc(C)c3)n2)CC1 [2-(4-ethylpiperazin-1-yl)-4-N-(3-methylphenyl)-5-nitropyrimidine-4,6-diamine]
EC50: > 300 µM

Fc1ccc(-c2nnc(SCc3cccnc3)o2)cc1 [2-(4-fluorophenyl)-5-(pyridin-3-ylmethylsulfanyl)-1,3,4-oxadiazole]
EC50: 75.5 µM

O=C(CSc1ccc(F)cc1)Nc1ccc(N2CCOCC2)cc1 [2-(4-fluorophenyl)sulfanyl-N-(4-morpholin-4-ylphenyl)ethanamide]
EC50: > 300 µM

CC(C)=CCc1c(O)c(CC=C(C)C)c2c(c1O)C(=O)CC(c1ccc(O)cc1)O2 (stereo not given) [2-(4-hydroxyphenyl)-6,8-bis(3-methylbut-2-enyl)-5,7-bis(oxidanyl)-2,3-dihydrochromen-4-one]
EC50: > 300 µM

CC(C)=CCc1c(O)cc2c(c1O)C(=O)CC(c1ccc(O)cc1)O2 (stereo not given) [2-(4-hydroxyphenyl)-6-(3-methylbut-2-enyl)-5,7-bis(oxidanyl)-2,3-dihydrochromen-4-one]
EC50: > 300 µM

Cc1nn(CC(=O)NCCCN2CCCCC2)c(=O)c2cccn12 [2-(4-methyl-1-oxidanylidene-pyrrolo[1,2-d][1,2,4]triazin-2-yl)-N-(3-piperidin-1-ylpropyl)ethanamide]
EC50: > 300 µM

Cc1ccc(OCC(=O)N/N=C/c2ccc(O)cc2)c([N+](=O)[O-])c1 [2-(4-methyl-2-nitro-phenoxy)-N'-[(4-oxidanylidenecyclohexa-2,5-dien-1-ylidene)methyl]ethanehydrazide]
EC50: 7.18 µM

Cc1ccc(OCC(=O)NN=Cc2ccccc2)c([N+](=O)[O-])c1 [2-(4-methyl-2-nitro-phenoxy)-N-[(phenylmethylidene)amino]ethanamide]
EC50: > 300 µM

Cc1ccc(C=NNC(=O)COc2ccc(C)cc2[N+](=O)[O-])cc1 [2-(4-methyl-2-nitrophenoxy)-N'-[(1Z)-(4-methylphenyl)methylene]acetohydrazide]
EC50: > 300 µM

Cc1ccc(OCC(=O)NN=C2SCC(=O)N2Cc2ccccc2)cc1 [2-(4-methylphenoxy)-N-[[4-oxo-3-(phenylmethyl)-2-thiazolidinylidene]amino]acetamide]
EC50: > 300 µM

Cc1ccc(CC(=O)Nc2ncc([N+](=O)[O-])s2)cc1 [2-(4-methylphenyl)-N-(5-nitro-1,3-thiazol-2-yl)acetamide]
EC50: 28.8 µM

Cc1ccc(S(=O)(=O)CC(=O)Nc2ncc([N+](=O)[O-])s2)cc1 [2-(4-methylphenyl)sulfonyl-N-(5-nitro-1,3-thiazol-2-yl)acetamide]
EC50: > 300 µM

c1c2c(cc3sc(N4CCOCC4)nc13)OCCO2 [2-(4-morpholinyl)-6,7-dihydro-[1,4]dioxino[2,3-f][1,3]benzothiazole]
EC50: > 300 µM

O=c1cc(-c2ccncc2)oc2ccccc12 [2-(4-pyridyl)chromone]
EC50: 17.9 µM

Source: BindingDB's records for doi:10.7270/Q2TX3CTT (Broad Institute, 2010)
